We go through one compound from patent US12492169B2, “Aminopyridine compound and application thereof” (priority 2020, dated 2025).

What is called AUC is concentration integrated over time. Higher therefore signals high exposure. As a reminder, the half-life is the time needed for the level to fall by half in the phase considered. The low end stands for rapid decline, the high end for slow decline. A word on the Cmax: it is the maximum level reached in the sampled fluid or tissue. Broadly, the Tmax is the time from dosing to the highest level. For orientation: bioavailability means dose-corrected exposure relative to a reference, in per cent. Read a high bioavailability as much systemic uptake.

This series can be described thus: Pharmacokinetic evaluation in dogs (IV, PO). Type of series: in vivo, beagle dogs. The note with it: beagle, plasma, Dog. An excerpt: Experimental Purpose: To evaluate the druggability of the compounds by measuring its pharmacokinetic properties in different animal species.
Experimental materials: CD-1 mice, Sprague-Dawley strain rats, beagle dogs, and crab-eating macaques.
Drug preparation: An appropriate amount of sample was weighed and then prepared into a clear or suspended solution.
Experimental procedure: The animal pharmacokinetic characteristics after intravenous injection and oral administration of the compound were tested using a standard protocol. The candidate compound was prepared as a clear solution (for intravenous injection) or a homogeneous suspension (for oral administration) during the experiment and administered to the animals as a single dose. Whole blood samples were collected at 0.083, 0.25, 0.5, 1, 2, 4, 8, and 24 hours, centrifuged at 3200 g for 10 minutes to separate the supernatant to obtain plasma samples. The plasma concentration was quantitatively analyzed by LC-MS/MS analysis method and pharmacokinetic parameters were calculated, such as peak concentration, peak time, clearance rate, half-life, area under the drug-time curve, etc.

`Nc1ccc(C#CCc2ccc(COc3ccccn3)cc2)cn1` [WX004]: under “1 mg/kg, IV, 1 mpk”, the AUC amounted to 2.8 µM·h, the Vd stood at 2.8 L/kg, the clearance stood at 21 mL/min/kg and the half-life was 2.5 h. In addition, under “10 mg/kg, PO, 10 mpk”, the AUC came to 14 µM·h, the Cmax was found to be 6.5 µM, the Tmax stood at 0.75 h and the bioavailability stood at 51%.
